These results are taken from ChEMBL document CHEMBL2163248, “Classification of inhibitors of hepatic organic anion transporting polypeptides (OATPs): influence of protein expression on drug-drug interactions” (J Med Chem, 2012).

In data set [1] the target is T1, Solute carrier organic anion transporter family member 1B1 (Homo sapiens, UniProt Q9Y6L6).
T1 sequence (Q9Y6L6 whole entry): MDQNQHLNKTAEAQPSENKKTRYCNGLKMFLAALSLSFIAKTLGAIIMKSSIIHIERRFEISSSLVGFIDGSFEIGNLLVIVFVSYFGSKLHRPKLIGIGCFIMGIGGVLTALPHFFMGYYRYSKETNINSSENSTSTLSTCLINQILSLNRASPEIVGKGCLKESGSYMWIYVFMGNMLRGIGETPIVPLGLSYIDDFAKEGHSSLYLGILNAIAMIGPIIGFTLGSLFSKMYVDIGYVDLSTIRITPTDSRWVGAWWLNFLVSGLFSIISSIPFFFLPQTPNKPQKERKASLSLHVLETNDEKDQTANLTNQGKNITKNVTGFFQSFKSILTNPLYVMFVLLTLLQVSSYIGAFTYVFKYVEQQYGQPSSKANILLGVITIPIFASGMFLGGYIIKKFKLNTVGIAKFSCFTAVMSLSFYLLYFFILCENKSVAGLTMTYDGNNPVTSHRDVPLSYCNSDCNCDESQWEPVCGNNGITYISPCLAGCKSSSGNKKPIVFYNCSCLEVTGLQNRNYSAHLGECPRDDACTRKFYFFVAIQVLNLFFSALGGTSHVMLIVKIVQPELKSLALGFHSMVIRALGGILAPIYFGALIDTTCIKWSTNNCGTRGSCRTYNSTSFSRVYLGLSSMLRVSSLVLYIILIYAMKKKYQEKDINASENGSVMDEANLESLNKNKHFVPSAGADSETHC
Briefly: Inhibition of human liver OATP1B1 expressed in HEK293 Flp-In cells assessed as reduction in E17-betaG uptake at 20 uM by scintillation counting. Particulars: hek293, 20 µM.

The target of data set [2] is T2, Solute carrier organic anion transporter family member 2B1 (Homo sapiens, UniProt O94956).
T2 sequence (O94956 whole entry): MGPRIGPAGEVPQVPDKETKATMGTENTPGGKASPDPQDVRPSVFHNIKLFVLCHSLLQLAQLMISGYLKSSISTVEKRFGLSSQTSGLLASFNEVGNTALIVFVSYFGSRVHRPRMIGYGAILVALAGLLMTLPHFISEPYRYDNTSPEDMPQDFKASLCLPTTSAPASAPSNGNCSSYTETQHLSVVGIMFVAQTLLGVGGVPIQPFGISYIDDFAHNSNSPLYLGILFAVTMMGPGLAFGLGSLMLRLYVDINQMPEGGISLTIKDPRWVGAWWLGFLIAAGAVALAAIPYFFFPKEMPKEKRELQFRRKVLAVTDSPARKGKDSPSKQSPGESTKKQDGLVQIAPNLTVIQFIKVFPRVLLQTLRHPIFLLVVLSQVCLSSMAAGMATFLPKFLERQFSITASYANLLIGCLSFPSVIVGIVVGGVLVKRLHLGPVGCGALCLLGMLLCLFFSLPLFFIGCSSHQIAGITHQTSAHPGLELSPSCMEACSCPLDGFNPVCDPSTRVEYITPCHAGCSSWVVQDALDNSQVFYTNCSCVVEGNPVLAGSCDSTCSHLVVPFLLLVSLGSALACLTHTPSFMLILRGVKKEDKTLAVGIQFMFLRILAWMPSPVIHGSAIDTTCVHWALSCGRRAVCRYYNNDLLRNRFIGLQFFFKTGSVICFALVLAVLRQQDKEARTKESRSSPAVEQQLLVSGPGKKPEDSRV
As to the kind of experiment: Inhibition of human liver OATP2B1 expressed in HEK293 Flp-In cells assessed as reduction in [3H]E3S uptake at 20 uM incubated for 5 mins by scintillation counting. The conditions noted are these: hek293, 5 min.

The target in data set [3] is T3, Solute carrier organic anion transporter family member 1B3 (Homo sapiens, UniProt Q9NPD5).
T3 sequence (Q9NPD5 whole entry): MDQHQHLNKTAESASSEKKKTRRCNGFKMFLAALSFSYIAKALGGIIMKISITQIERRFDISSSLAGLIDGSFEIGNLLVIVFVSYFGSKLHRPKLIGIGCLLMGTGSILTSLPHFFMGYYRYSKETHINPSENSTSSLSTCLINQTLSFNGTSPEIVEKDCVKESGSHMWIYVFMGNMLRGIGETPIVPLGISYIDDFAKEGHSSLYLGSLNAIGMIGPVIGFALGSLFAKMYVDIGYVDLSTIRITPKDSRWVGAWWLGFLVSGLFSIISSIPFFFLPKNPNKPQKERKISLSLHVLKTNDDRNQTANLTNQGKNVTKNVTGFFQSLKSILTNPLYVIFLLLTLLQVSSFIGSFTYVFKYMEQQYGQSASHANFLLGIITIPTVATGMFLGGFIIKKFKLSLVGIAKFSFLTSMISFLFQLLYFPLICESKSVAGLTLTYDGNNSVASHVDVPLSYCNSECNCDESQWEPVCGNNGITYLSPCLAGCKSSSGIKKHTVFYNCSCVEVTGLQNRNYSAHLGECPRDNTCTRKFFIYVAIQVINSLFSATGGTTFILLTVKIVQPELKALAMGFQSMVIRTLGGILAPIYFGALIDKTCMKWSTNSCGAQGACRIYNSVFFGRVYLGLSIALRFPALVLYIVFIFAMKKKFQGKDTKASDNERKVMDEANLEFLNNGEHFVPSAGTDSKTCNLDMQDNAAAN
Briefly: Inhibition of human liver OATP1B3 expressed in HEK293 Flp-In cells assessed as reduction in [3H]E17-betaG uptake at 20 uM incubated for 5 mins by scintillation counting. The conditions noted are these: hek293, 5 min.

`CO[C@H]1/C=C/O[C@@]2(C)Oc3c(C)c(O)c4c(O)c(c(/C=N/N5CCN(C)CC5)c(O)c4c3C2=O)NC(=O)/C(C)=C\C=C\[C@H](C)[C@H](O)[C@@H](C)[C@@H](O)[C@@H](C)[C@H](OC(C)=O)[C@@H]1C` [RIFAMPIN]: the INH was 88.3% in data set [1], 21.2% in data set [2] and 101.7% in data set [3].

In the case of `CO[C@H]1/C=C/O[C@@]2(C)Oc3c(C)c(O)c4c(O)c(cc(O)c4c3C2=O)NC(=O)/C(C)=C\C=C\[C@H](C)[C@H](O)[C@@H](C)[C@@H](O)[C@@H](C)[C@H](OC(C)=O)[C@@H]1C` [RIFAMYCIN], the values for the INH in data set [1], in data set [2] and in data set [3] were 95.4%, 74.8% and 101.4%, respectively.

In the case of `C[C@]12C=CC(=O)C=C1CC[C@@H]1[C@@H]2[C@@H](O)C[C@@]2(C)[C@H]1CC[C@]2(O)C(=O)CO` [PREDNISOLONE], the INH in data set [1] was 2.3%; in data set [2] it was 27.6%; in data set [3] it was 9.6%.

For the molecule `CC(=O)S[C@@H]1CC2=CC(=O)CC[C@]2(C)[C@H]2CC[C@@]3(C)[C@@H](CC[C@@]34CCC(=O)O4)[C@H]12` [SPIRONOLACTONE], the results for the INH in data set [1], in data set [2] and in data set [3] were 88.3%, -82% and -34.2%, respectively.

`C[C@H]1O[C@H](O[C@H]2[C@H](O)[C@@H](O)[C@@H](O[C@H]3[C@H](O)[C@@H](O)C(O)O[C@@H]3CO)O[C@@H]2CO)[C@H](O)[C@@H](O)[C@@H]1N[C@H]1C=C(CO)[C@@H](O)[C@H](O)[C@H]1O` (some centres undefined) [ACARBOSE]: the INH in data set [1] came to 14.9%; in data set [2], 0.1%; in data set [3], 17.7%.

As for `O=c1oc2cc(O)ccc2c2oc3cc(O)ccc3c12` [COUMESTROL], the INH in data set [1] is listed as 73.2%; in data set [2], -41.5%; in data set [3], -21.1%.

For IVERMECTIN, the INH in data set [1] came to 64.7%; in data set [2], 39%; in data set [3], 55.2%.

In the case of `CC[C@H](C)C(=O)O[C@H]1C[C@@H](C)C=C2C=C[C@H](C)[C@H](CC[C@@H]3C[C@@H](O)CC(=O)O3)[C@H]21` [LOVASTATIN], the INH is given as 66.5% in data set [1], -17.9% in data set [2] and 21.3% in data set [3].

For the molecule `Cc1ccc(C)c(OCCCC(C)(C)C(=O)O)c1` [GEMFIBROZIL], the INH in data set [1] is 59.3%; in data set [2], 15.1%; in data set [3], 14.4%.

For `Cc1cccc(C)c1NC(=O)CC12CCCN1CCC2` [PILSICAINIDE], the INH in data set [1] is on record as 11.2%; in data set [2], 10.8%; in data set [3], -16.8%.

As for `CC(C)OC(=O)C(C)(C)Oc1ccc(C(=O)c2ccc(Cl)cc2)cc1` [FENOFIBRATE], the INH is listed as 5.4% in data set [1], 34.2% in data set [2] and -10.8% in data set [3].

Turning to `O=C1OC(c2ccc(O)c(S(=O)(=O)[O-])c2)(c2ccc(O)c(S(=O)(=O)[O-])c2)c2c(Br)c(Br)c(Br)c(Br)c21.[Na+].[Na+]` [SULFOBROMOPHTHALEIN SODIUM], the INH is recorded as 94.1% in data set [1], 69.3% in data set [2] and 74.9% in data set [3].

Consider `CCC(C)(C)C(=O)O[C@H]1C[C@@H](C)C=C2C=C[C@H](C)[C@H](CC[C@@H]3C[C@@H](O)CC(=O)O3)[C@H]21` [SIMVASTATIN], for which the INH in data set [2] amounted to 47.4%; in data set [3], 29.3%.

For `CCC1(c2ccccc2)NC(=O)N(C)C1=O` (centres undefined) [MEPHENYTOIN], the INH in data set [1] was -5.7%; in data set [2], 32.9%; in data set [3] it was -0.6%.

`CCCN(CCC)S(=O)(=O)c1ccc(C(=O)O)cc1` [PROBENECID]: the INH was determined as 35.2% in data set [1] and 22% in data set [3].

For `O=C1CN(/N=C/c2ccc([N+](=O)[O-])o2)C(=O)N1` [NITROFURANTOIN], the INH in data set [2] is 23.1%; in data set [3] it was -1.5%.

For `C[C@]12CC[C@H]3[C@@H](CCC4=CC(=O)CC[C@@]43C)[C@@H]1CC[C@@H]2O` [TESTOSTERONE], in data set [2], the INH is listed as -175.1%.

For the molecule `Nc1ccc(S(=O)(=O)Nc2ccnn2-c2ccccc2)cc1` [SULFAPHENAZOLE], the INH in data set [2] was 17.1%; in data set [3], 0.7%.

Turning to `CN(CCOc1ccc(NS(C)(=O)=O)cc1)CCc1ccc(NS(C)(=O)=O)cc1` [DOFETILIDE], the INH in data set [1] is 1%; in data set [3] it was 19.9%.

On to `CC/C(=C(\c1ccccc1)c1ccc(OCCN(C)C)cc1)c1ccccc1` [TAMOXIFEN], for which the INH in data set [2] was 11%; in data set [3], 28.5%.

In the case of `CCCCC1C(=O)N(c2ccccc2)N(c2ccccc2)C1=O` [PHENYLBUTAZONE], the INH in data set [3] was 17%.

As to `CC(C)(C)NC(=O)[C@@H]1C[C@@H]2CCCC[C@@H]2CN1C[C@@H](O)[C@H](Cc1ccccc1)NC(=O)[C@H](CC(N)=O)NC(=O)c1ccc2ccccc2n1`, the INH in data set [3] is 6.6%.

Consider `C=C[C@H]1C[N@@]2CC[C@H]1C[C@@H]2[C@@H](O)c1ccnc2ccc(OC)cc12` [QUINIDINE], for which the INH in data set [1] was determined as 43.3%.

Turning to `COc1ccc(Cl)cc1C(=O)NCCc1ccc(S(=O)(=O)NC(=O)NC2CCCCC2)cc1` [GLYBURIDE], the INH amounted to 77.4% in data set [2] and 49.3% in data set [3].

Take `COc1cc([C@@H]2c3cc4c(cc3[C@@H](O[C@@H]3O[C@@H]5CO[C@@H](C)O[C@H]5[C@H](O)[C@H]3O)[C@H]3COC(=O)[C@H]23)OCO4)cc(OC)c1O` [ETOPOSIDE]: the INH in data set [2] is on record as 6.8%.

Consider `Cc1ccc(N(CC(=O)O)CC(=O)O)c(OCCOc2cc(-c3c4cc(Cl)c(=O)cc-4oc4cc(O)c(Cl)cc34)ccc2N(CC(=O)O)CC(=O)O)c1`, for which, in data set [3], the INH was determined as 88.5%.

On to `CC(C)n1c(/C=C/C(O)CC(O)CC(=O)O)c(-c2ccc(F)cc2)c2ccccc21` (centres undefined) [FLUVASTATIN], for which, in data set [3], the INH is listed as 76%.

Turning to `C=C[C@H]1C[N@@]2CC[C@H]1C[C@H]2[C@H](O)c1ccnc2ccc(OC)cc12` [QUININE], in data set [1], the INH is listed as 54%.

In the case of `Nc1nc(=O)n([C@@H]2CS[C@H](CO)O2)cc1F` [EMTRICITABINE], the INH is reported as 6.4% in data set [1] and 17.1% in data set [3].

Regarding `COC(=O)[C@H]1[C@H]2C[C@@H]3c4[nH]c5cc(OC)ccc5c4CCN3C[C@H]2C[C@@H](OC(=O)c2cc(OC)c(OC)c(OC)c2)[C@@H]1OC` [RESERPINE], the results for the INH in data set [1] and in data set [2] were 67.2% and 72.3%, respectively.

Take `CNCCCN1c2ccccc2CCc2ccccc21` [DESIPRAMINE]: the INH was -4.4% in data set [2] and 3.2% in data set [3].

As to `COc1ccc(CCN(C)CCCC(C#N)(c2ccc(OC)c(OC)c2)C(C)C)cc1OC` (centres undefined), the INH is given as -62.6% in data set [2] and -9% in data set [3].
